Test results: patent US5371102A, “Compositions and methods of inhibiting thyroid activity” (priority 1993, dated 1994)
“Also recorded” adds a separate entry of the source. Like-named read-outs stand apart in the source and are kept apart here.

How the values were obtained:
LPX [1] = target: T1, LPX (Bos taurus, UniProt P80025); assay: LPX iodide ion oxidation activity after incubation and dilution; assay type: biochemical, bovine; details: for remaining activity at 100 µM: 100 μM DMMBI, 100 s at 25° C., 200-fold dilution, n=4, read-out: Rate (% of control)
T1 construct: purchased Sigma Chemical Company
Source text: (§1) Materials used in the examples below were obtained from the following sources. Bovine LPX, bovine liver catalase, glucose oxidase, 30% hydrogen peroxide, glucose, guaiacol, ABTS and deuterium oxide were purchased from Sigma Chemical Company. Selenium dioxide, MBI ^13 CH3 I and PBA were purchased from Aldrich Chemical Company and PBA was purified as previously described by Fieset et al., Reagents for Organic Synthesis, Vol. I, pp.135-139, John Wiley and Sons, N.Y. (1967). LPX purity was checked by PAGE, as described by Doerge, D.R., et al. in, Biochem. Pharmacol., Vol.36, pp.972-974 (1986). TPX was purified from hog thyroids obtained from a local slaughterhouse by published procedures. Doerge & Takazowa, Chemical Research in Toxicology, Vol. 3, pp. 98-101 (1990). TPX purity was determined by LC and its concentration determined spectophotometrically. Hydroperoxide concentrations were determined by iodometric titration, as described by Kolthoff, et al., in "Quantitative Chemical Analysis", Macmillan, London, pp.842-860 (1969). MMBI, and BI were synthesized by published procedures as described by Doerge, D.R., Biochem, Vol. 27, pp. 3697-3700 (1988) and were recrystallized from aqueous ethanol. MeBI was purified by distillation and DMeBI^+ was synthesized and purified by recrystallization from ethyl acetate/methanol. 1-^13 C-MMBI was synthesized from ^13 CH3 I according to the procedure disclosed by Doerge, D.R., in, J. Lab. Comp. and Radiopharm., Vol.25, pp.985-990 (1988). PPHP and PPA were prepared, purified and analyzed as previously described by Doerge, Biochem, Vol.27, p.11 (1988). The methyl ester of 1-methyl-benzimidazole-2-sulfinic acid was prepared by addition of hydrogen peroxide (5 equivalents of a 10 M solution) to MMBI (0.1 M) in methanol. The products, MeBI and the ester, were obtained following preparative TLC on silica (Uniplate, Analtech Co., Newark, DL) using 5% methanol/chloroform as eluant.
The following experiment was performed to determine the effect of DMMBI oxidation on LPX activity. LPX (0.1 μM, final concentration) was incubated with hydrogen peroxide (100 μM), iodide ion (5 mM) and DMMBI (100 μM), as indicated in Table 2. After a 100 second incubation at 25° C., an aliquot was diluted 200-fold and the iodide ion oxidation activity determined. Values shown in Table 2, are averages +/- standard deviations (n=4) of the percentage relative to untreated LPX.

LPX and TPX = assay: suicide inhibition of peroxidases (summary statements); assay type: biochemical
[2] = reaction of DMMBI with preformed triiodide; details: triiodide formed by H2O2, LPX and iodide ion
Source text: When triiodide ion was formed by addition of hydrogen peroxide to LPX and iodide ion, addition of DMMBI caused rapid quenching of triiodide (ca. 1 sec) and DMeBI^+ was the sole product. Triiodide produced by addition of […] to aqueous iodide ion reacted identically with DMMBI.

LPX [3] = target: T1, LPX; assay: LPX-catalyzed iodide ion oxidation (triiodide formation); assay type: biochemical, bovine
Source text: as §1, with “The products, MeBI and the ester, were obtained following preparative TLC on silica (Uniplate, Analtech Co., Newark, DL) using 5% methanol/chloroform as eluant.” left out
Inhibition of LPX activity by thiones was determined from the kinetics of iodide ion, guaiacol or ABTS oxidation assays conducted at 25° C. Kinetic parameters of suicide inactivation were determined as previously described. […]

TPX = target: T2, TPX (Sus scrofa, UniProt P09933); assay: TPX/hydrogen peroxide-catalyzed oxidation of ABTS and guaiacol; assay type: biochemical, hog
T2 sequence (P09933 15-926): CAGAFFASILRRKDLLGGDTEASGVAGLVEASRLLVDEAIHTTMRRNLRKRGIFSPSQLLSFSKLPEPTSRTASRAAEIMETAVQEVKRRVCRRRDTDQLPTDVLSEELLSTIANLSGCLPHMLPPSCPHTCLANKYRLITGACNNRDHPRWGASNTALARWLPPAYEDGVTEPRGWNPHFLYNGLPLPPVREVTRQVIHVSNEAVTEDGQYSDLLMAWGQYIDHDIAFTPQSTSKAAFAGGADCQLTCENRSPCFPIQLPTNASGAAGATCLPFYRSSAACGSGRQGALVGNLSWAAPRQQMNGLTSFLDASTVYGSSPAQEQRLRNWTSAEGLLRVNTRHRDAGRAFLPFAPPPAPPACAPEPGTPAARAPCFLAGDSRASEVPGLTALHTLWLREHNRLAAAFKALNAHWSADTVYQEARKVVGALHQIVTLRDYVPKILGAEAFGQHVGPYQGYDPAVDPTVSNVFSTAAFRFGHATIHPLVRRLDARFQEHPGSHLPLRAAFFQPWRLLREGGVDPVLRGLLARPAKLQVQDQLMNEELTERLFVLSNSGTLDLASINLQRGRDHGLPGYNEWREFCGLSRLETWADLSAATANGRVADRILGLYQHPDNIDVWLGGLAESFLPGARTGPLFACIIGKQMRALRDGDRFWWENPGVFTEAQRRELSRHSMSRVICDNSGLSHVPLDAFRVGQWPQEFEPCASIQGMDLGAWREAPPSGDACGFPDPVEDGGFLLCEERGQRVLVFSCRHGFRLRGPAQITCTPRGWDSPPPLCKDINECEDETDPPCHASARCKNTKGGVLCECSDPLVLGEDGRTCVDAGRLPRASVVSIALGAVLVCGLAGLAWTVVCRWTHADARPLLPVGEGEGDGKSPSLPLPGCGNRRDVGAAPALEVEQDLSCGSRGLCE
Source text: as §1, with “MeBI was purified by distillation and DMeBI^+ was synthesized and purified by recrystallization from ethyl acetate/methanol. 1-^13 C-MMBI was synthesized from ^13 CH3 I according to the procedure disclosed by Doerge, D.R., in, J. Lab. Comp. and Radiopharm., Vol.25, pp.985-990 (1988).” left out, “The methyl ester of 1-methyl-benzimidazole-2-sulfinic acid was prepared by addition of hydrogen peroxide (5 equivalents of a 10 M solution) to MMBI (0.1 M) in methanol. The products, MeBI and the ester, were obtained following preparative TLC on silica (Uniplate, Analtech Co., Newark, DL) using 5% methanol/chloroform as eluant.” left out

remaining activity at 100 µM (LPX [1]; LPX + DMMBI): 100 ± 4%
remaining activity at 100 µM (LPX [1]; LPX + H2O2 + DMMBI + I-): 107 ± 6%
remaining activity at 100 µM (LPX [1]; LPX + H2O2 + DMMBI): 104 ± 6%
Compound: Cn1c(=S)n(C)c2ccccc21 [DMMBI, 1,3-dimethylbenzimidazole-2-thione]
loss of enzymatic activity (LPX [1]; LPX/hydrogen peroxide, absence of iodide ion): did not cause any loss of enzymatic activity
loss of enzymatic activity (LPX [1]; iodide ion present, DMMBI converted to DMeBI+, 1/200 dilution): no loss of enzymatic activity was detected
selectivity for iodide ion oxidation (LPX and TPX; alternate substrate mechanism): block only reactions involving iodide ion oxidation
suicide inhibition (LPX and TPX; summary of own examples): not suicide inhibitors
time of triiodide quenching [2]: ca. 1 sec
inhibition of iodide ion oxidation (triiodide formation) (LPX [3]; LPX, H2O2, iodide ion): marked inhibition of iodide ion oxidation; also recorded: inhibits only iodide ion oxidation
lag period (LPX [3]; dependence on DMMBI concentration): proportional to the concentration of DMMBI
effect on oxidation of ABTS and guaiacol (TPX): does not affect LPX or TPX/hydrogen peroxide-catalyzed oxidation of the substrates ABTS and guaiacol
